In US7018456B2, “Phthalocyanine compound, water-base ink composition and colored material” (Nippon Kayaku Kabushiki Kaisha, priority 2002, dated 2006) one finds water-solubility data, which are given here for one substance.

A short description of the series: Water-solubility of the phthalocyanine compound. Conditions: at the ordinary temperature. In kind it is physicochemical. The method, then:
300 parts of wet cake containing 53.6 parts of tetramino copper phthalocyanine (0.085 mol) were suspended in 360 parts of water in a four-neck flask equipped with a condenser, followed by heating to 60° C. with stirring, dropping 9.5 parts of acetic anhydride (0.093 mol) at the same temperature and stirring at the same temperature for 5 hours. Successively 0.2 parts of hydroquinone and 95.4 parts of acrylic acid […] were added, followed by heating to 80° C. and stirring with keeping the same temperature for 12 hours. Judging from the reaction, mixture of several compounds though it is, the reaction product is found to correspond to a compound which comprises tetramino phthalocyanine having on average one introduced acyl group (acetylamino) and three introduced carboxyethyl per molecule, namely the desired monoacetylamino(2-tricarboxyethylamino) copper phthalocyanine.

Turning to “monoacetylamino(2-tricarboxyethylamino) copper phthalocyanine [Example 5]”, the water-solubility entry is recorded as “about 10 % by mass”.
